One test has as its system A2058 melanoma cell line. The experiment in a line: scratch assay for migration, A2058. The class given is cell-based, human. The settings on record: OGM 5 μM, EIPA 10 μM, 20 hours. How it is done:
(§1) Cells were grown to confluence and the cells were denuded with a P200 tip. A medium change was done to add fresh medium, remove loose cells and add compounds OGM (5 μM) and EIPA (10 μM). The area of the scratch was observed 20 hours later.
(§2) Since there are numerous parallels are found between neural crest cells and cancer during migration, we examined whether OGM could inhibit the migration of cells in human melanoma cell lines (Oppitz et al., 2007; Schriek et al., 2005; Sinnberg et al., 2018). […] A2058, MeWo and WM115 cells were grown to confluence and a stripe of cells were denuded with a p200 pipette tip “scratch” and rinsed with PBS. Cells were treated with OGM or EIPA, or DMSO and incubated in low serum media. Imaging was done at 30 minutes after “scratch” and then 20 hours afterwards. Areas were then measured and normalized to the initial area.
(§3) Previous studies with the MV3 melanoma cell line have shown that disruption of proton efflux with EIPA inhibition of NHE1 can also reduce melanoma motility (Ludwig et al., 2013; Schneider et al., 2009; Stock et al., 2007, 2005; Stüwe et al., 2007). […] Although the expression of GPR68 and other proton-sensing receptors have been characterized in various skin cancers (Merkel cell carcinoma, dermatofibrosarcoma protuberans, atypical fibroxanthoma, and pleomorphic dermal sarcoma), expression in melanoma cell lines has not investigated (Nassios et al., 2019).

Another test concerns MeWo melanoma cell line. The experiment in a line: scratch assay for migration, MeWo. It is filed as cell-based, human. As to conditions: OGM 5 μM, EIPA 10 μM, 20 hours. How it is done:
as §1, §2, §3

The test system of another test is WM115 melanoma cell line. As to the kind of experiment: scratch assay for migration, WM115. The class given is cell-based, human. As to conditions: OGM 5 μM, EIPA 10 μM, 20 hours. Here is the method: as §1, §2, §3
A further test concerns the target Lpa1 (Homo sapiens (Human), UniProt Q92633). As to the kind of experiment: Lpa1 activity of OGM analogs (Table 5). It is filed as cell-based.
Another test concerns zebrafish embryo. As to the kind of experiment: zebrafish embryo phenotype (pigmentation, morphology). The class given is in vivo. The settings on record: concentrations up to 200× the IC50.
Another test has as its target GPR68/OGR1 (Homo sapiens (Human), UniProt Q15743). As to the kind of experiment: inhibition of GPR68/OGR1 in CHEM1-OGR1 cells, Fluo-8 calcium response to acidified media. The class given is cell-based. As to conditions: acidified media pH 6.4, Fluo-8. How it is done: Briefly, the methods were: On the day before the assay 20,000 cells per well of CHEM1-OGR1 cells were plated in 10% DMEM containing 10% FBS and 1% Pen/Strep into a 96 well plate. After 24 hours media was removed and cells were stained with 80 uL Fluo-8 calcium indicator dye according to manufacturer's protocol. After staining cells were treated with 20 uL of 4× concentration of test compounds. Using kinetic imaging in the Lionheart HCS fluorescence intensity was continuously measure at 10 frames per second, for 5 seconds before 100 μL of acidified media was added to the well resulting in a pH of 6.4. A ratio of fluorescence intensities prior to addition and at peak were calculated and averaged. The resulting data were platted and using a 4 parameter logistic regression EC50 for each test compound was determined.

A further test deals with GPR68 (Homo sapiens (Human), UniProt Q15743). As to the kind of experiment: GPR68 inhibitory activity of OGM analogs (Table 5). It is filed as cell-based. How it is done:
GPCR profiling assays were performed by Millipore (St. Louis, MO) using in cells expressing Gα15, a promiscuous G protein that enhances GPCR coupling to downstream Ca2+ signaling pathways.
Since GPCRs represent >30% of targets for FDA-approved small molecules and are known to modulate cell migration, activity against 158 GPCRs was assessed based on their chemical structures. GPCRs (158) were tested for agonist and antagonist activity at 10 μM. […] Chemical segregation analysis of zebrafish phenotype was conducted to further identify the inhibitory activity responsible for the zebrafish phenotype. […] The identities of the R groups in FIG. 2B are shown below in Table 5.
Chem1-GPR68 reporter cells were treated with 20 uM OM8345 for 2 hours and then rinsed with HBSS. […] The GPR68 inhibitory activity of OGM analogs segregated with the ability of the molecule to induce the phenotype in zebrafish. Neural crest progenitors labeled with In situ hybridization of FoxD3 show normal formation of the progenitor pool.

The subject of a further test is U87glioblastoma cells. As to the kind of experiment: 3D tumoroid growth over time with GPR68 modulators. The class given is cell-based. The settings on record: 10 μM/20 μM, imaged every 12 hours. How it is done:
A GPR68-positive allosteric modulator, Ogerin, was tested. U87glioblastoma cells were plated in low attachment round bottom 96-well plates and allowed to form tumor spheroids for 3 days (T0). These spheroids were treated with Vehicle (DMSO), 10 μM/20 μM Ogerin or 10 μM/20 μM Ogremorphin (OGM2). The spheroids were placed in the Lionheart™ HCS equipped with environmental control (5% CO2 at 37° C.) and imaged every 12 hours.

Broadly, the IC50 is the concentration at which inhibition is half-maximal. Lower therefore signals greater potency in that assay. As a reminder, the EC50 is the midpoint of the concentration-response curve.

Chain of Lpa1 (Q92633 whole entry, species assumed): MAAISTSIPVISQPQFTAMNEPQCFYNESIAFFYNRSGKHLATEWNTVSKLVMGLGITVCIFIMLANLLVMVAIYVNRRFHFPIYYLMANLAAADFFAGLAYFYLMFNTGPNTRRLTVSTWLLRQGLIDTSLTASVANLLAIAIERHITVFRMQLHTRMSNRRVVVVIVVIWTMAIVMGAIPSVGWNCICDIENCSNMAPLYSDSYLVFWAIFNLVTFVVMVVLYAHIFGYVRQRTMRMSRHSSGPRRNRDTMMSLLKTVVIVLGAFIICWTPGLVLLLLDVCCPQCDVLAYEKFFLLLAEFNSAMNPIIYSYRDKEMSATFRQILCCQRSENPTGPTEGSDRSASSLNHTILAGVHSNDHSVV
Chain of GPR68 (Q15743 whole entry, looked up): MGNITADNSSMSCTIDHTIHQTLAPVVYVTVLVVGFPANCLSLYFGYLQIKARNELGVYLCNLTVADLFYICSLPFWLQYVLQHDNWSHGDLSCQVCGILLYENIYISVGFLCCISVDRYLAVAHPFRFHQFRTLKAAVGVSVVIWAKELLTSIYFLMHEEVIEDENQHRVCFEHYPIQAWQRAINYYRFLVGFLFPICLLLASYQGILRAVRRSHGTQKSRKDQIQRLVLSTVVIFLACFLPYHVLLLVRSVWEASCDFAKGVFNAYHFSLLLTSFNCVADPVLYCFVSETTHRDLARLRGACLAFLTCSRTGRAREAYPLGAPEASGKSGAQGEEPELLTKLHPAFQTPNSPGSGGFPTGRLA
Chain of GPR68/OGR1 (Q15743 whole entry): as the sequence (Q15743 whole entry, looked up) above

Consider `CCN(c1nc(N)c(C(=O)NC(=N)N)nc1Cl)C(C)C` [EIPA, reference compound], for which the “migration in scratch assay” value with A2058 melanoma cell line is on record as “inhibited migration”; in the test with MeWo melanoma cell line, “refractory to the inhibition”; in the test with WM115 melanoma cell line it was “inhibited migration”.

Turning to `Cc1noc(-c2ccc(CSCCC(=O)O)cc2)c1NC(=O)OC(C)c1ccccc1Cl` (stereo not drawn) [LPAi, reference compound], the IC50 at Lpa1 came out at 250 nM. The zebrafish phenotype entry with zebrafish embryo was “failed to induce a noticeable phenotype”.

Take `CCc1ccc2c(c1)C1(NN=C(c3cccc4ccccc34)S1)C(=O)N2` (stereo not drawn) [OGM1]: the EC50 at GPR68/OGR1 worked out at 170 nM. On GPR68, this molecule registered an IC50 of 160 nM.

Consider `Cc1ccc2c(c1)C1(NN=C(c3ccccc3)S1)C(=O)N2` (stereo not drawn) [OGM3], for which the concentration for half-maximal inhibition (IC50) on Lpa1 amounted to 6400 nM; against GPR68, 760 nM.

Take `CCc1ccc2c(c1)C1(NN=C(c3ccccc3O)S1)C(=O)N2` (stereo not drawn) [OGM4]: the IC50 against Lpa1 was 1400 nM; against GPR68 it was 3400 nM.

Molecule `CN1C(=O)C2(NN=C(c3ccccc3)S2)c2ccccc21` (stereo not drawn) [OGM5] returned an IC50 on GPR68 of 810 nM. This counts as sub-micromolar.

Regarding `CN1C(=O)C2(NN=C(c3cccc4ccccc34)S2)c2ccccc21` (stereo not drawn) [OGM6], half-maximal inhibition on GPR68 (IC50) required 1500 nM. Compared with the last molecule, the IC50 is about 1.9-fold higher.

As for `Nc1nc(NCc2ccccc2)nc(-c2ccccc2CO)n1` [Ogerin], the “growth in 3D tumoroid culture” value in the test on U87glioblastoma cells is recorded as “Stimulates Growth”.

Regarding `COc1cc(Br)c(S(=O)(=O)Nc2ccc(Cl)c(O[C@@H]3CCN(C)C3)c2)cc1OC` [UT2i, reference compound], in the test on zebrafish embryo, the zebrafish phenotype result is reported as “failed to induce a noticeable phenotype”.
